Results reported in article PMC7932521, “2-aminobenzimidazoles for leishmaniasis: From initial hit discovery to in vivo profiling” (PLoS Neglected Tropical Diseases, 2021).

How the values were obtained:
Format in all cases: cell-based
B2 = target: T1, B2 (Homo sapiens, UniProt P30411); assay: Bioprofiling 6pt Ag B2 CHO; conditions: agonist readout
T1 construct: expressed in transfected cells; host or cells: CHO
T1 sequence (P30411 1-391): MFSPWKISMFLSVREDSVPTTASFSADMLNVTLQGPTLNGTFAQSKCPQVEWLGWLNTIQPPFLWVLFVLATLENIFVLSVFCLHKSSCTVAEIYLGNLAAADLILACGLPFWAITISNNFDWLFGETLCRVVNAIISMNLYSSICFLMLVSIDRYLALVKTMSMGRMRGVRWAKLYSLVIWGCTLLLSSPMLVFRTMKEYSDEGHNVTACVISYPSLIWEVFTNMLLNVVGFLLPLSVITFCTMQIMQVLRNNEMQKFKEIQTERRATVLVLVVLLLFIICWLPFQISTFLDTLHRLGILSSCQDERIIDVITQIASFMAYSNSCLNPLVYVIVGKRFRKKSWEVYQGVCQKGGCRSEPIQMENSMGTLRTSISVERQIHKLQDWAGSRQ
Method: (§1) The compounds were evaluated across a panel of 20 liability targets (37 functional assays) which included functional cell-based GPCRs and ion channels in both agonist and antagonist readout, measuring calcium flux and biochemical functional assays for nuclear hormone receptors and phosphodiesterases using TR-FRET format, in a 6 point 1:3 dilution dose series (maximum final concentration of 10 μM).

Alpha1A = target: T2, Alpha1A (Homo sapiens, UniProt P35348); assay: Bioprofiling 6pt Antag Alpha1A CHO; conditions: antagonist readout vs A-61603
T2 construct: expressed in transfected cells; host or cells: CHO
T2 sequence (P35348 1-466): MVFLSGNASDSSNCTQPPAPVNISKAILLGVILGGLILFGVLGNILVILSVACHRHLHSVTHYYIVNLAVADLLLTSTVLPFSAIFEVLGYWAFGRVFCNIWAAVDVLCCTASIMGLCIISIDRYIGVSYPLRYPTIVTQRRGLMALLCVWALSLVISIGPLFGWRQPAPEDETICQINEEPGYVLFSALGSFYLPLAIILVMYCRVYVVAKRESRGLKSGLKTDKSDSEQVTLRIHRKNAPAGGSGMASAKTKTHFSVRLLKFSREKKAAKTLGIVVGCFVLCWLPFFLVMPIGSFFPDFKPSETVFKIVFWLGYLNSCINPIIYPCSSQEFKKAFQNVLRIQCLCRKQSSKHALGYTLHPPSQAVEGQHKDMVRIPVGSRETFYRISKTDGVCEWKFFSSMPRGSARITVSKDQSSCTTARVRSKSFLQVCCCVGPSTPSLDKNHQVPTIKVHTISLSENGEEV
Method: as §1

Cav1.2 (L-type) [1] = target: T3, Cav1.2 (L-type) (Mus musculus, UniProt Q01815); assay: Bioprofiling 6pt Antag Cav1.2 (L-type) ND7/23; conditions: mouse/rat, ND7/23 cells; antagonist readout vs KCl
T3 sequence (Q01815 whole entry): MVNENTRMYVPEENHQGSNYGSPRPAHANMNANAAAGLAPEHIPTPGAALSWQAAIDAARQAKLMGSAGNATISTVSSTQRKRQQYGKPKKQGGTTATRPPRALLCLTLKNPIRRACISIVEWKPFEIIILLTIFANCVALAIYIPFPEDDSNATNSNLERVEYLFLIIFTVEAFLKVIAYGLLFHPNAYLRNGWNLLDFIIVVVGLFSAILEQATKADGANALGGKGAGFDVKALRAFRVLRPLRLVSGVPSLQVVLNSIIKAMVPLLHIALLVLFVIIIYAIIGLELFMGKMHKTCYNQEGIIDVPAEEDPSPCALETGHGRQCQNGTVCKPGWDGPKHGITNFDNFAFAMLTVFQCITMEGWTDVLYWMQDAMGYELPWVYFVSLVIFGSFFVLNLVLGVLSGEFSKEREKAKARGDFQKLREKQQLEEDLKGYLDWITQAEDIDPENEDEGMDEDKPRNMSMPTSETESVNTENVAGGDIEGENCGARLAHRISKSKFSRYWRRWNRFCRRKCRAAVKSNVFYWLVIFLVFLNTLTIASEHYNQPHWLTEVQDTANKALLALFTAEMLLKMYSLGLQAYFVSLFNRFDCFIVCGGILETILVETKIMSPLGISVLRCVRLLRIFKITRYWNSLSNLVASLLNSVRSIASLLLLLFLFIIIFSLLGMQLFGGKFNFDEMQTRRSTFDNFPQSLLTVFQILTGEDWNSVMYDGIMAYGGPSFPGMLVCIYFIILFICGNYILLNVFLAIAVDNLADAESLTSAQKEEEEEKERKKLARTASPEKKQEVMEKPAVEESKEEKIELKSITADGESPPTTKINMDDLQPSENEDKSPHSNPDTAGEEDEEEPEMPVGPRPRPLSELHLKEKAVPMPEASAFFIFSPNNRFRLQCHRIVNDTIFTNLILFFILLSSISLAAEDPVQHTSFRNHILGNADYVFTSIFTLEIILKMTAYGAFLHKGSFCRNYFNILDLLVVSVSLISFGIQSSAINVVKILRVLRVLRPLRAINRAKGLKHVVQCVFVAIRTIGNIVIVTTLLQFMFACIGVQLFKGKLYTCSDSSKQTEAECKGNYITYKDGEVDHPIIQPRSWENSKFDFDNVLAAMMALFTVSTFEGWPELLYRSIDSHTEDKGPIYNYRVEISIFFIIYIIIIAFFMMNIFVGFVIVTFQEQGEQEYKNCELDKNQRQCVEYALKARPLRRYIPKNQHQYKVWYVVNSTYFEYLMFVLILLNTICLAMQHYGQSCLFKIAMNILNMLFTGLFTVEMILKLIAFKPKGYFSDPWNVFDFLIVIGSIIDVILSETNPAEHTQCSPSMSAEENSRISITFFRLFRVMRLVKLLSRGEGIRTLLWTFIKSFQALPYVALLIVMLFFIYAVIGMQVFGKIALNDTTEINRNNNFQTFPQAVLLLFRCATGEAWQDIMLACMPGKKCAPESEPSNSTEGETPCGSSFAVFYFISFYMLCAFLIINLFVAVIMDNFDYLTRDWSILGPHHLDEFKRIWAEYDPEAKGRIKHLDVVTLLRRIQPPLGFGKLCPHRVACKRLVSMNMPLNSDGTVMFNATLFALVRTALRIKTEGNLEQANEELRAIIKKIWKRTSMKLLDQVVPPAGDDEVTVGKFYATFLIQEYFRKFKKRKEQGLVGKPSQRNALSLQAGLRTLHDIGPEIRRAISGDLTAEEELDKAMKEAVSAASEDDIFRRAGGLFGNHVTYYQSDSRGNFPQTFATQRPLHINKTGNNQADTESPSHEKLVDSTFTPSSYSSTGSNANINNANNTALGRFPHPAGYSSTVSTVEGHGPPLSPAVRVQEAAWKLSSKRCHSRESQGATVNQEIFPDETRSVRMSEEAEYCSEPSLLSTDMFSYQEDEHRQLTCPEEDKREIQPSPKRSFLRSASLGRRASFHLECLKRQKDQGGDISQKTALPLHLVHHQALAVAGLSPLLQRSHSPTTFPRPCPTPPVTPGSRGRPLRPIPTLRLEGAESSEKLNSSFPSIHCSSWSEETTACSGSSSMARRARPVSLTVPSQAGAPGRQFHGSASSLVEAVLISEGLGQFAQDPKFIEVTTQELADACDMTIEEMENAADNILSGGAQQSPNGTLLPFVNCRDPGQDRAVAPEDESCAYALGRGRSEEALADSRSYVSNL
Method: as §1

CHO = assay: Bioprofiling 6pt Ag CHO Hamster; conditions: agonist readout
Method: as §1

Alpha2A = target: T4, Alpha2A (Homo sapiens, UniProt P08913); assay: Bioprofiling 6pt Antag Alpha2A CHO; conditions: antagonist readout vs UK-14304
T4 construct: expressed in transfected cells; host or cells: CHO
T4 sequence (P08913 1-465): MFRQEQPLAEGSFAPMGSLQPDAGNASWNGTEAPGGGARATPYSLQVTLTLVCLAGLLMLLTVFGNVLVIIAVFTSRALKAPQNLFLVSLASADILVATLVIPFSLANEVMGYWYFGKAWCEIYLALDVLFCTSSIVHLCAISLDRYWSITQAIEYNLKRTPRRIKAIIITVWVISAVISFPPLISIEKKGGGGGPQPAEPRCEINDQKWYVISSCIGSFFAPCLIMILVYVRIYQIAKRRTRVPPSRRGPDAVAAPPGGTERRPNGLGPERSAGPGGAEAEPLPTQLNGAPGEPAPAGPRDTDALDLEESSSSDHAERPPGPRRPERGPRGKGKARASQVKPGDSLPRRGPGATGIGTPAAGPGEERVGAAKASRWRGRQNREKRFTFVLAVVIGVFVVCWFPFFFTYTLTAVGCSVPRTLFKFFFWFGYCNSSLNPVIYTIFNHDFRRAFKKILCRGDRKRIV
Method: as §1

Cav1.2 (L-type) [2] = target: T3, Cav1.2 (L-type); assay: Bioprofiling 6pt Ag Cav1.2 (L-type) ND7/23; conditions: mouse/rat, ND7/23 cells; agonist readout
Method: as §1

P2Y = assay: Bioprofiling 6pt Antag P2Y CHO; conditions: antagonist readout vs ATP; read-out: Bioprofiling 6pt Antag P2Y CHO Hamster IC50
Method: as §1

5-HT1A = target: T5, 5-HT1A (Homo sapiens, UniProt P08908); assay: Bioprofiling 6pt Ag 5-HT1A CHO; conditions: agonist readout
T5 construct: expressed in transfected cells; host or cells: CHO
T5 sequence (P08908 1-422): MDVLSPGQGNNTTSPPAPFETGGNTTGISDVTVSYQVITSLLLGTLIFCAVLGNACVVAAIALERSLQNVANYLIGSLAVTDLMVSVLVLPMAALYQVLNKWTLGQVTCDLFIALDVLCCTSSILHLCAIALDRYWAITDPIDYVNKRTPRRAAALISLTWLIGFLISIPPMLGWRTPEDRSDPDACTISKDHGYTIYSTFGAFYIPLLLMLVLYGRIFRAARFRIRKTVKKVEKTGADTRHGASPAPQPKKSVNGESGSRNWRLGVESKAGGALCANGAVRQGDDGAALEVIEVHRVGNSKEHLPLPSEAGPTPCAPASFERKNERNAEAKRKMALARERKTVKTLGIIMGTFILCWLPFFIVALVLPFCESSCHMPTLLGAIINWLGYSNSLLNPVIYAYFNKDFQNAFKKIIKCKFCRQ
Method: as §1

Beta1 = target: T6, Beta1 (Homo sapiens, UniProt P08588); assay: Bioprofiling 6pt Antag Beta1 CHO; conditions: antagonist readout vs Norepinephrine
T6 construct: expressed in transfected cells; host or cells: CHO
T6 sequence (P08588 whole entry): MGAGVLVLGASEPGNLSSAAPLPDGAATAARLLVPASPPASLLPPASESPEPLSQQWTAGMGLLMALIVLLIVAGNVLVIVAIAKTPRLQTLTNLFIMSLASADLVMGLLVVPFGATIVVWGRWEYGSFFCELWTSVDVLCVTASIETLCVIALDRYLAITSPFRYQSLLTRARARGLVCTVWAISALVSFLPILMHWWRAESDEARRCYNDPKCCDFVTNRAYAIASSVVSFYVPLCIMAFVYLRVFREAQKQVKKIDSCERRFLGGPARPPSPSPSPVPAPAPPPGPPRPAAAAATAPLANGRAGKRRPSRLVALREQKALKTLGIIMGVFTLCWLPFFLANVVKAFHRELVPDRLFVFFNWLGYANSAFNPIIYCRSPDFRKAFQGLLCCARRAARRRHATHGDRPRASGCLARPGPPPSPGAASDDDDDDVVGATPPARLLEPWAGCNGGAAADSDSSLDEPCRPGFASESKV
Method: as §1

HEPG2 cytotoxicity = conditions: human, HepG2 cells; S1 Data
From the text: Supplement pntd.0009196.s001.xlsx, sheet "Complete Dataset" | column: HEPG2 CC50 (uM)

Opioid mu = target: T7, Opioid mu (Homo sapiens, UniProt P35372); assay: Bioprofiling 6pt Ag Opioid mu CHO; conditions: agonist readout
T7 construct: expressed in transfected cells; host or cells: CHO
T7 sequence (P35372 whole entry): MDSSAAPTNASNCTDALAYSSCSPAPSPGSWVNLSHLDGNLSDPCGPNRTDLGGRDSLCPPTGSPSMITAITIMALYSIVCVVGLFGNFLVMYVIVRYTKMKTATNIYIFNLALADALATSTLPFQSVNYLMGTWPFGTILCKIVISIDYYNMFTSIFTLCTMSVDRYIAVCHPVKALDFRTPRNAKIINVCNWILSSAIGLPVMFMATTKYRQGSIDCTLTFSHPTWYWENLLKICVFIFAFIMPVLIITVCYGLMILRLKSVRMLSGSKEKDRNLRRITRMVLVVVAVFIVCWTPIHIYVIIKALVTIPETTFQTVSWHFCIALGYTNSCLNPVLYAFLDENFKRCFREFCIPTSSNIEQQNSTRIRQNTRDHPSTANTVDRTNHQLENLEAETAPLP
Method: as §1

ETA = target: T8, ETA (Homo sapiens, UniProt P25101); assay: Bioprofiling 6pt Ag ETA CHO; conditions: agonist readout
T8 construct: expressed in transfected cells; host or cells: CHO
T8 sequence (P25101 21-427): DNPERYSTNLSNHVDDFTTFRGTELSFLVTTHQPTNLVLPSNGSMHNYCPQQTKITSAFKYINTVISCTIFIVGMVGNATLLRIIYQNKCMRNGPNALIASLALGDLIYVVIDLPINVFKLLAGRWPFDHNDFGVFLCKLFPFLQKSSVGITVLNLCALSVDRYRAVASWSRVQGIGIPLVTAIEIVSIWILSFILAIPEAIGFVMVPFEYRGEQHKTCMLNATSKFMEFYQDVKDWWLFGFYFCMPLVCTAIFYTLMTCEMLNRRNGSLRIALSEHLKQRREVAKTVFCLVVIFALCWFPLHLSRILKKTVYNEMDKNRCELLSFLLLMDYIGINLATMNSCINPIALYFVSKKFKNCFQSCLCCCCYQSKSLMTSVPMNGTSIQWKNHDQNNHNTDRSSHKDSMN
Method: as §1

Compound `Cn1nccc1C(=O)Nc1nc2ccc(C#N)cc2n1CC(C)(C)C` [Compound 29, O=C(Nc1n(CC(C)(C)C)c(c2n1)cc(C#N)cc2)c3n(C)ncc3] has an EC50 (B2) of over 10 µM, an IC50 (Alpha1A) of over 10 µM and an IC50 (Cav1.2 (L-type) [1]) of over 10 µM. The EC50 (CHO) was over 10 µM, the IC50 (Alpha2A) was over 10 µM and the EC50 (Cav1.2 (L-type) [2]) was over 10 µM. The IC50 (P2Y) was over 10 µM, the EC50 (5-HT1A) was over 10 µM and the IC50 (Beta1) was over 10 µM. The CC50 (HEPG2 cytotoxicity) was 9.08 µM, the EC50 (Opioid mu) was over 10 µM and the EC50 (ETA) was over 10 µM.
Compound `Cn1nccc1C(=O)Nc1nc2ccc(C#N)cc2n1CC(F)(F)F` [Compound 30, O=C(c1ccnn1C)Nc2nc(ccc(C#N)c3)c3n2CC(F)(F)F] has an EC50 (B2) of over 10 µM, an IC50 (Alpha1A) of over 10 µM and an IC50 (Cav1.2 (L-type) [1]) of over 10 µM. For the same compound, the EC50 (CHO) was over 10 µM, the IC50 (Alpha2A) was over 10 µM and the EC50 (Cav1.2 (L-type) [2]) was over 10 µM. For the same compound, the IC50 (P2Y) was over 10 µM, the EC50 (5-HT1A) was over 10 µM and the IC50 (Beta1) was over 10 µM. It also gave a CC50 (HEPG2 cytotoxicity) of 5.46 µM, an EC50 (Opioid mu) of over 10 µM and an EC50 (ETA) of over 10 µM.
In the case of `Cn1nc(C(F)(F)F)cc1C(=O)Nc1nc2ccc(C#N)cc2n1CC(F)(F)F` [Compound 39, O=C(c1cc(C(F)(F)F)nn1C)Nc2nc(ccc(C#N)c3)c3n2CC(F)(F)F], the EC50 (B2) is reported as over 10 µM, the IC50 (Alpha1A) is reported as over 10 µM and the IC50 (Cav1.2 (L-type) [1]) is reported as over 10 µM. The EC50 (CHO) was over 10 µM, the IC50 (Alpha2A) was over 10 µM and the EC50 (Cav1.2 (L-type) [2]) was over 10 µM. It also gave an IC50 (P2Y) of over 10 µM, an EC50 (5-HT1A) of over 10 µM and an IC50 (Beta1) of over 10 µM. The CC50 (HEPG2 cytotoxicity) was 1.13 µM, the EC50 (Opioid mu) was over 10 µM and the EC50 (ETA) was over 10 µM.
For `COc1ccc(C(=O)Nc2nc3ccc(C#N)cc3n2CC(F)(F)F)cn1` [Compound 43, O=C(c1ccc(OC)nc1)Nc2nc(ccc(C#N)c3)c3n2CC(F)(F)F], the EC50 (B2) was over 10 µM, the IC50 (Alpha1A) was over 10 µM and the IC50 (Cav1.2 (L-type) [1]) was over 10 µM. It also gave an EC50 (CHO) of over 10 µM, an IC50 (Alpha2A) of over 10 µM and an EC50 (Cav1.2 (L-type) [2]) of over 10 µM. It also gave an IC50 (P2Y) of over 10 µM, an EC50 (5-HT1A) of over 10 µM and an IC50 (Beta1) of over 10 µM. For the same compound, the CC50 (HEPG2 cytotoxicity) was 2.6 µM, the EC50 (Opioid mu) was over 10 µM and the EC50 (ETA) was over 10 µM.
Work on `N#Cc1ccc2nc(NC(=O)c3ccnc(C(F)(F)F)c3)n(CC(F)(F)F)c2c1` [Compound 44, O=C(c1ccnc(C(F)(F)F)c1)Nc2nc(ccc(C#N)c3)c3n2CC(F)(F)F] yielded an EC50 (B2) of over 10 µM, an IC50 (Alpha1A) of over 10 µM and an IC50 (Cav1.2 (L-type) [1]) of over 10 µM. It also gave an EC50 (CHO) of over 10 µM, an IC50 (Alpha2A) of over 10 µM and an EC50 (Cav1.2 (L-type) [2]) of over 10 µM. For the same compound, the IC50 (P2Y) was over 10 µM, the EC50 (5-HT1A) was over 10 µM and the IC50 (Beta1) was over 10 µM. It also gave a CC50 (HEPG2 cytotoxicity) of 2.38 µM, an EC50 (Opioid mu) of over 10 µM and an EC50 (ETA) of over 10 µM.
`N#Cc1ccc2nc(NC(=O)c3ccc(C(F)(F)F)nc3)n(CC(F)(F)F)c2c1` [Compound 45, O=C(c1ccc(C(F)(F)F)nc1)Nc2nc(ccc(C#N)c3)c3n2CC(F)(F)F] showed an EC50 (B2) of over 10 µM, an IC50 (Alpha1A) of over 10 µM and an IC50 (Cav1.2 (L-type) [1]) of over 10 µM. The EC50 (CHO) was over 10 µM, the IC50 (Alpha2A) was over 10 µM and the EC50 (Cav1.2 (L-type) [2]) was over 10 µM. It also gave an IC50 (P2Y) of over 10 µM, an EC50 (5-HT1A) of over 10 µM and an IC50 (Beta1) of over 10 µM. For the same compound, the CC50 (HEPG2 cytotoxicity) was 1.12 µM, the EC50 (Opioid mu) was over 10 µM and the EC50 (ETA) was over 10 µM.
